Assay results from patent US11578055B2, “Triazacyclododecansulfonamide (“TCD”)-based protein secretion inhibitors” (KEZAR LIFE SCIENCES, priority 2018, dated 2023).
Like-named read-outs stand apart in the source and are kept apart here.

How the values were obtained:
[1] = system: PD1 signal sequence plus 10 amino acids fused to Gaussia Luciferase (PD1-ss+10aa/Gaussia Luciferase); test: Dox Induced PD1-ss-Gluc Assay; assay type: cell-based; conditions: 24 hr, read-out: 24 hr Dox Inducible PD1ssGluc 293FRT/TO: Mean IC50
Method in brief: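 Stable Flp-In 293 T-REx line expressing the fusion under tetracycline-inducible control, plated the day before assay. Compound dilutions added with doxycycline and incubated at 37 °C, 5% CO2; unspecified stereocentres mean data refer to stereoisomer mixtures.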

[2] = system: full length TNFα (amino acids 1-233) fused to Gaussia Luciferase; test: Dox Induced TNFα-FL-Gluc Assay; assay type: cell-based; conditions: 24 hr, read-out: 24 hr Dox Inducible TNFaFLGluc 293FRT/TO: Mean IC50
Method in brief: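 Stable Flp-In 293 T-REx line expressing doxycycline-inducible full-length TNFα fused to Gaussia luciferase; cells plated the day before, then treated with compound dilutions in doxycycline-containing medium at 37° C, 5% CO2. Unspecified stereocentres mean stereoisomer mixtures were tested.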

[3] = system: full length IL-2 (amino acids 1-153) fused to Gaussia Luciferase; test: Dox Induced IL2-FL-Gluc Assay; assay type: cell-based; conditions: 24 hr, read-out: 24 hr Dox Inducible IL2FLGluc 293FRT/TO: Mean IC50
Method in brief: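 Flp-In 293 T-REx stable line expressing full-length IL-2 (aa 1-153) with C-terminal Gaussia luciferase fusion under doxycycline-inducible control. Cells plated the day before; compound dilutions added in DMSO/media containing doxycycline, incubated at 37° C, 5% CO2.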

[4] = system: multiple myeloma cell line NCl-H929; test: H929 Cell Viability Assay; assay type: cell-based, human; conditions: Homo sapiens, NCI-H929, 48 h
Method in brief: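 NCI-H929 myeloma cells in RPMI 1640 with 10% FBS were treated with compound dilutions for 48 h at 37 °C, and viability was then read by CellTiter-Glo luminescence. Compounds drawn without stereochemistry were tested as stereoisomer mixtures.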

[5] = system: multiple myeloma cell line U266B1; test: U266 Cell Viability Assay; assay type: cell-based, human; conditions: Homo sapiens, U-266, 48 hr
Method in brief: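 U266B1 myeloma cells in RPMI 1640 with 10% FBS were treated with compound dilutions for 48 h at 37° C, 5% CO2. Viability was read as CellTiter-Glo luminescence. Data for structures drawn without stereochemistry refer to stereoisomer mixtures.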

[6] = In Vitro Microsome Stability Assay (human); assay type: in vitro ADME
Method in brief: (§1)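 Species liver microsomes in potassium phosphate buffer were preincubated at 37 °C for 3–5 min with test compound (added from 0.25 mM DMSO stock), then started with NADPH. Samples at 0 and 30 min were quenched with acetonitrile containing internal standard and analysed by LC-MS/MS; % remaining at 30 min used analyte/IS AUC ratios relative to t=0.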

[7] = In Vitro Microsome Stability Assay (mouse); assay type: in vitro ADME
Method in brief: as §1

[8] = In Vitro Microsome Stability Assay (rat); assay type: in vitro ADME
Method in brief: as §1

[9] = In Vitro Microsome Stability Assay (monkey); assay type: in vitro ADME
Method in brief: as §1

[10] = human liver microsomes, 30 min w/ NADPH
[11] = mouse liver microsomes, 30 min w/ NADPH
[12] = rat liver microsomes, 30 min w/ NADPH
[13] = monkey liver microsomes, 30 min w/ NADPH
[14] = H929, read-out: 48 hr H929 Viability Celltiter-Glo: Mean EC50
[15] = U266, read-out: 48 hr U266 Viability Celltiter-Glo: Mean EC50

Row | SMILES | IC50 ([1]; Dox inducible, 293FRT/TO cells) [µM] | IC50 ([2]; Dox inducible, 293FRT/TO cells) [µM] | IC50 ([3]; Dox inducible, 293FRT/TO cells) [µM] | EC50 ([4]; H929, Celltiter-Glo) [µM] | EC50 ([5]; U266, Celltiter-Glo) [µM] | Liver Microsome Stability-% Left after 30 min w/ NADPH (%) Human [6, 10] [%] | Liver Microsome Stability-% Left after 30 min w/ NADPH (%) Mouse [7, 11] [%] | Liver Microsome Stability-% Left after 30 min w/ NADPH (%) Rat [8, 12] [%] | Liver Microsome Stability-% Left after 30 min w/ NADPH (%) Monkey [9, 13] [%] | IC50 ([1]; 293FRT/TO) [µM] | IC50 ([2]; 293FRT/TO) [µM] | IC50 ([3]; 293FRT/TO) [µM] | EC50 [4, 14] [µM] | EC50 [5, 15] [µM] | Liver Microsome Stability-% Left after 30 min w/ NADPH (%) Human ([6]; human, 30 min, NADPH) [%] | Liver Microsome Stability-% Left after 30 min w/ NADPH (%) Mouse ([7]; mouse, 30 min, NADPH) [%] | Liver Microsome Stability-% Left after 30 min w/ NADPH (%) Rat ([8]; rat, 30 min, NADPH) [%] | Liver Microsome Stability-% Left after 30 min w/ NADPH (%) Monkey ([9]; monkey, 30 min, NADPH) [%]
1 | Cc1cccc2c1CCN(S(=O)(=O)N1CCCN(CC3CCCCC3)CCCN(S(=O)(=O)c3ccc(N(C)C)cc3)C[C@H](C)C1)C2 [A166, 4-{[(3S)-9-(cyclohexylmethyl)-3-methyl-5-[(5-methyl-1,2,3,4-tetrahydroisoquinolin-2-yl)sulfonyl]-1,5,9-triazacyclododecan-1-yl]sulfonyl}-N,N-dimethylaniline] | 0.0167 | 0.278 | 0.0302 | 0.548 | > 25 | 14.0 | 26.4 | 31.3 | 18.7 | – | – | – | – | – | – | – | – | –
2 | C[C@@H]1CN(CC2CCCCC2)C[C@@H](C)CN(S(=O)(=O)N2CCc3cc(Cl)ccc3C2)C[C@@H](C)CN(S(=O)(=O)c2ccc(N(C)C)cc2)C1 [A164] | 0.455 | > 25 | 0.974 | > 25 | > 25 | 64.8 | 69.0 | 57.9 | 40.9 | – | – | – | – | – | – | – | – | –
3 | CC(C)CCN1CCCN(S(=O)(=O)c2ccc(N(C)C)cc2)C[C@H](C)CN(S(=O)(=O)N2CCc3cc(Cl)ccc3C2)CCC1 [A123, 4-{[(3S)-5-[(6-chloro-1,2,3,4-tetrahydroisoquinolin-2-yl)sulfonyl]-3-methyl-9-(3-methylbutyl)-1,5,9-triazacyclododecan-1-yl]sulfonyl}-N,N-dimethylaniline] | 0.014 | 0.425 | 0.0459 | 0.835 | > 25 | 5.02 | 6.13 | 7.41 | 3.47 | – | – | – | – | – | – | – | – | –
4 | CO/N=C1/CN(S(=O)(=O)c2ccc(N(C)C)cc2)CCCN(CC2CCCCC2)CCCN(S(=O)(=O)N2CCC(c3ccccc3)CC2)C1 [A88, (3Z)-9-(cyclohexylmethyl)-1-[4-(dimethylamino)benzenesulfonyl]-N-methoxy-5-[(4-phenylpiperidin-1-yl)sulfonyl]-1,5,9-triazacyclododecan-3-imine] | – | – | – | – | – | – | – | – | – | 4.33 | > 25 | > 25 | > 25 | > 25 | 11.7 | 15.9 | 15.2 | 1.33
5 | C[C@H]1CN(S(=O)(=O)c2ccc(N(C)C)cc2)CCCN(CC2CCCCC2)CCCN(S(=O)(=O)N2CCN(c3ccccc3C#N)CC2)C1 [A118, 2-(4-{[(3S)-9-(cyclohexylmethyl)-5-[4-(dimethylamino)benzenesulfonyl]-3-methyl-1,5,9-triazacyclododecan-1-yl]sulfonyl}piperazin-1-yl)benzonitrile] | 0.0678 | 2.09 | 0.173 | 5.35 | > 25 | 14.2 | 22.1 | 18.3 | 14.7 | – | – | – | – | – | – | – | – | –
6 | C[C@H]1CCN(S(=O)(=O)c2ccc(N(C)C)cc2)CCCN(CC2CCCCC2)CCCN1S(=O)(=O)N1CCc2cc(Cl)ccc2C1 [A147, 4-{[(4 S)-5-[(6-chloro-1,2,3,4-tetrahydroisoquinolin-2-yl)sulfonyl]-9-(cyclohexylmethyl)-4-methyl-1,5,9-triazacyclododecan-1-yl]sulfonyl}-N,N-dimethylaniline] | 4.12 | > 25 | > 25 | > 25 | > 25 | 2.76 | 0.74 | 1.16 | 0.99 | – | – | – | – | – | – | – | – | –
7 | Cc1ccc(N2CCN(S(=O)(=O)N3CCCN(CC4CCCCC4)CCCN(S(=O)(=O)c4ccc(N(C)C)cc4)C[C@H](C)C3)CC2)cc1 [A99, 4-{[(3S)-9-(cyclohexylmethyl)-3-methyl-5-{[4-(4-methylphenyl)piperazin-1-yl]sulfonyl}-1,5,9-triazacyclododecan-1-yl]sulfonyl}-N,N-dimethylaniline] | – | – | – | – | – | 41.9 | – | – | 37 | 0.116 | 3.54 | 0.35 | > 25 | > 25 | – | 60.8 | 50.8 | –
8 | C=C1CN(S(=O)(=O)c2ccc(N(C)C)cc2)CCCN(CC2CCCCC2)CCCN(S(=O)(=O)N2Cc3ccc(Cl)cc3C2)C1 [A89, 4-({5-[(5-chloro-2,3-dihydro-1H-isoindo1-2-yl)sulfonyl]-9-(cyclohexylmethyl)-3-methylidene-1,5,9-triazacyclododecan-1-yl}sulfonyl)-N,N-dimethylaniline] | – | – | – | – | – | – | – | – | – | 0.082 | 1.21 | 0.187 | 1.75 | > 25 | 18.5 | 17.1 | 22.2 | 13.5
9 | C[C@H]1CN(S(=O)(=O)c2ccc3oncc3c2)CCCN(CC2CCCCC2)CCCN(S(=O)(=O)N2CCc3cc(Cl)ccc3C2)C1 [A180] | 2.74 | > 25 | 13.8 | 20.2 | > 25 | 0.80 | 0.44 | 1.97 | 0.08 | – | – | – | – | – | – | – | – | –
10 | Cc1cccc(C)c1N1CCN(S(=O)(=O)N2CCCN(CC3CCCCC3)CCCN(S(=O)(=O)c3ccc(N(C)C)cc3)C[C@H](C)C2)CC1 [A119, 4-{[(3S)-9-(cyclohexylmethyl)-5-{[4-(2,6-dimethylphenyl)piperazin-1-yl]sulfonyl}-3-methyl-1,5,9-triazacyclododecan-1-yl]sulfonyl}-N,N-dimethylaniline] | 0.0523 | 1.08 | 0.17 | 7.68 | > 25 | 71.7 | 50.8 | 66.1 | 53.9 | – | – | – | – | – | – | – | – | –
11 | C[C@H]1CN(S(=O)(=O)c2ccc(N(C)C)cc2)CCCN(CC2CCCCC2)CCCN(S(=O)(=O)N2CC[C@@H](c3ccccc3)C2)C1 [A90, 4-{[(3S)-9-(cyclohexylmethyl)-3-methyl-5-{[(3S)-3-phenylpyrrolidin-1-yl]sulfonyl}-1,5,9-triazacyclododecan-1-yl]sulfonyl}-N,N-dimethylaniline] | – | – | – | – | – | – | – | – | – | 0.207 | 2.41 | 0.493 | 3.79 | > 25 | 20.1 | 28.2 | 20.2 | 14.1
